Experimental data as given in patent US5656590A, “Treatment of anorexia and related states” (Amylin Pharmaceuticals, Inc., priority 1993, dated 1997).
Ends that are not written are not given here.

Key:
[1] = amylin agonist activity in vivo: ability to induce hyperlactemia and/or hyperglycemia in mammals; conditions: treated test animals
Source text: Analogues of amylin can be assayed for activity in the soleus muscle assay described above. Amylin agonist activity of compounds may also be assessed by the ability to induce hyperlactemia and/or hyperglycemia in mammals. […] These preferred compounds include ^25 Pro^26 Val^28,29 Pro-h-amylin, ^25,28,29 Pro-h-amylin, and ^18 Arg^25,28 Pro-h-amylin.

[2] = solubility and stability characteristics compared to human amylin; format: physicochemical
[3] = test system: liver glucose output; conditions: rats; cited from earlier work
[4] = toxicological studies with amylin, two weeks of administration (rats); format: in vivo
Source text: (§1) While this proposal is counter to reports that amylin can suppress appetite (which is clearly an undesirable feature for treatment of anorexia or cachectic states), applicant believes that the appetite suppressant effects of amylin is seen only at very high doses and may be short lived. Indeed, applicant has discovered that in toxicological studies with amylin in both rats and dogs, where two weeks of amylin administration were used, there was no reduction in food intake or weight in the animal.

[5] = administration of amylin to anesthetized rats: blood lactate and blood glucose; format: in vivo
Source text: The term "amylin" is used in this application to include compounds defined by Young et al., U.S. application Ser. No. 07/640,478, filed Jan. 10, 1991, now U.S. Pat. No. 5,234,906, entitled "Hyperglycemic Compositions", which (including drawings) is hereby incorporated by reference. For example, it includes the peptide hormone, and species variations of it, referred to as amylin which is synthesized and secreted from the beta cells of the pancreas. Thus, it includes human amylin, cat amylin, dog amylin; rat amylin, mouse amylin, hamster amylin, and guinea pig amylin. Preferably the amylin has an EC50 of less than 1 nM in the rat soleus muscle assay as described in, for example, European Patent Application 88307927.9. Amylin functions along with insulin, which is stored and released from the same pancreatic beta cells, to regulate fuel metabolism. Amylin acts through receptors located in skeletal muscle to increase glycogen turnover in this tissue, believed to result in an increased return to the bloodstream of lactate, which is a major precursor of hepatic gluconeogenesis. Amylin cosecretion with insulin after meals therefore results in restoration of hepatic glycogen content and limits the potential which would otherwise exist for insulin to induce hypoglycemia. […]

[6] = toxicological studies with amylin, two weeks of administration (dogs); format: in vivo
Source text: as §1

solubility characteristics [2]	stability characteristics [2]	Substance	amylin activity in vivo (hyperlactemia, hyperglycemia) [1]	further results
more desireable	more desireable	^18 Arg^25,28 Pro-h-amylin	marked hyperlactemia followed by hyperglycemia	–
more desireable	more desireable	^25 Pro^26 Val^28,29 Pro-h-amylin	–	–
–	–	^28 Pro-h-amylin (KCNTATCATQRLANFLVHSSNNFGAILPSTNVGSNTY; ends and bridges not checked; cysteine pairing not given here; UniProt P10997 34-70, looked up, variant S28P) [agonist analogue of human amylin]	marked hyperlactemia followed by hyperglycemia	–
–	–	amylin (KCNTATCATQRLANFLVHSSNNFGAILSSTNVGSNTY; Islet amyloid polypeptide; UniProt P10997 34-70, looked up) [peptide hormone, and species variations of it, synthesized and secreted from the beta cells of the pancreas]	–	effect on insulin-mediated suppression of liver glucose output [3]: reverses insulin-mediated suppression of liver glucose output; reduction in food intake [4]: no reduction; reduction in weight [4]: no reduction; blood lactate levels [5]: large increases in blood lactate levels; blood glucose levels ([5]; following the lactate increase): increased blood glucose levels; reduction in food intake [6]: no reduction; reduction in weight [6]: no reduction
–	–	des-^1 Lys-h-amylin (CNTATCATQRLANFLVHSSNNFGAILSSTNVGSNTY; ends and bridges not checked; cysteine pairing not given here; UniProt P10997 34-70, looked up, variant K1*) [agonist analogue of human amylin]	marked hyperlactemia followed by hyperglycemia	–
–	–	des-^1 Lys^18 Arg^25,28 Pro-h-amylin	marked hyperlactemia followed by hyperglycemia	–

Substance	solubility characteristics [2]	stability characteristics [2]	amylin activity in vivo (hyperlactemia, hyperglycemia) [1]	further results
^25,28,29 Pro-h-amylin (KCNTATCATQRLANFLVHSSNNFGPILPPTNVGSNTY; ends and bridges not checked; cysteine pairing not given here; UniProt P10997 34-70, looked up, variant A25P S28P S29P) [agonist analogue of human amylin]	more desireable	more desireable	marked hyperlactemia followed by hyperglycemia	–
